The CheMixHub viscosity set

Assay: xn = mol fraction of the nth substance listed

NNc1ccccc1 + COc1ccccc1O
303.15 K, 101 kPa
Conditions	viscosity [mPa·s]
x1 = 0.1	5.95
x1 = 0.2	8.21
x1 = 0.3	10.92
x1 = 0.4	13.15
x1 = 0.45	14.65
x1 = 0.5	15.26
x1 = 0.6	15.77
x1 = 0.667	16.06
x1 = 0.7	15.54
x1 = 0.8	14.08
x1 = 0.9	12.33

C[C@H]1CCCC[C@H]1O + C[C@@H]1CCCC[C@H]1O
viscosity [mPa·s], 101 kPa
Conditions	x1 = 0.199	x1 = 0.302	x1 = 0.399	x1 = 0.598	x1 = 0.691	x1 = 0.798
298.15 K	29.88	27.1	24.51	20.97	19.75	18.87
303.15 K	20.72	19.03	17.37	15.25	14.51	13.97

N#Cc1ccccc1 + Cc1ccccc1
viscosity [mPa·s], 100 kPa
Conditions	x1 = 0.1034	x1 = 0.2113	x1 = 0.3332	x1 = 0.409	x1 = 0.5093	x1 = 0.6337	x1 = 0.7569	x1 = 0.879
303 K	0.5391	0.5612	0.6226	0.6592	0.7016	0.7812	0.8795	0.9682
308 K	0.5099	0.5348	0.6121	0.6589	0.7285	0.7989	0.8621	0.9325
313 K	0.5068	0.5399	0.5908	0.6325	0.6985	0.7545	0.8319	0.8819

N#Cc1ccccc1 + ClC(Cl)(Cl)Cl
viscosity [mPa·s], 101 kPa
Conditions	293.15 K	298.15 K	303.15 K	313.15 K	323.15 K
x1 = 0.005	0.986	0.91	0.845	0.748	0.669
x1 = 0.009	1.008	0.934	0.871	0.772	0.694
x1 = 0.045	1.005	0.929	0.863	0.769	0.691

CCOCCOCCOCCO + ClC(Cl)=C(Cl)Cl
298.15 K, 101.33 kPa
Conditions	viscosity [mPa·s]
x1 = 0.0072	0.863
x1 = 0.0185	0.892
x1 = 0.0339	0.931
x1 = 0.0489	0.969
x1 = 0.0609	1.008
x1 = 0.0867	1.081
x1 = 0.1081	1.154
x1 = 0.1487	1.29
x1 = 0.1926	1.459
x1 = 0.2354	1.634
x1 = 0.2903	1.893
x1 = 0.3204	2.052
x1 = 0.3495	2.207
x1 = 0.3887	2.429
x1 = 0.4239	2.631
x1 = 0.4633	2.863
x1 = 0.5019	3.105
x1 = 0.5442	3.384
x1 = 0.5861	3.665
x1 = 0.6345	4.013
x1 = 0.6893	4.413
x1 = 0.7441	4.852
x1 = 0.8008	5.303
x1 = 0.8471	5.684
x1 = 0.9061	6.191
x1 = 0.9387	6.486
x1 = 0.9502	6.589
x1 = 0.9795	6.871

CCC(=O)OC + ClC(Cl)C(Cl)Cl
viscosity [mPa·s], 101.3 kPa
Conditions	308.15 K	318.15 K
x1 = 0.0501	1.352	1.214
x1 = 0.1021	1.296	1.149
x1 = 0.2031	1.186	1.032
x1 = 0.302	1.078	0.927
x1 = 0.3398	1.037	0.889
x1 = 0.5038	0.865	0.741
x1 = 0.6012	0.769	0.664
x1 = 0.6946	0.681	0.597
x1 = 0.7988	0.591	0.528
x1 = 0.9016	0.509	0.468
x1 = 0.9481	0.474	0.443

CCOCCOCCOCCO + ClC=C(Cl)Cl
298.15 K, 101.33 kPa
Conditions	viscosity [mPa·s]
x1 = 0.0053	0.54
x1 = 0.0167	0.565
x1 = 0.026	0.587
x1 = 0.0395	0.618
x1 = 0.0528	0.651
x1 = 0.0728	0.707
x1 = 0.1054	0.809
x1 = 0.1458	0.947
x1 = 0.1858	1.103
x1 = 0.2345	1.326
x1 = 0.2866	1.587
x1 = 0.3318	1.832
x1 = 0.3679	2.048
x1 = 0.4108	2.323
x1 = 0.447	2.559
x1 = 0.4818	2.796
x1 = 0.523	3.087
x1 = 0.5639	3.396
x1 = 0.6278	3.88
x1 = 0.6904	4.378
x1 = 0.7278	4.683
x1 = 0.7721	5.051
x1 = 0.8271	5.521
x1 = 0.8733	5.952
x1 = 0.9136	6.273
x1 = 0.9317	6.46
x1 = 0.9672	6.773
x2 = 0.0194	6.891

CCC(=O)OC + Clc1ccccc1
viscosity [mPa·s], 101.3 kPa
Conditions	308.15 K	318.15 K
x1 = 0.0485	0.646	0.598
x1 = 0.0993	0.635	0.589
x1 = 0.2038	0.612	0.57
x1 = 0.2614	0.599	0.559
x1 = 0.4087	0.567	0.531
x1 = 0.4556	0.556	0.522
x1 = 0.6041	0.523	0.493
x1 = 0.7011	0.503	0.475
x1 = 0.8064	0.479	0.454
x1 = 0.9054	0.457	0.434
x1 = 0.9486	0.448	0.426

CCCC[N+]1=C2CCCCCN2CCC1.c1c[n-]cn1 + O
viscosity [mPa·s], 100 kPa
Conditions	x1 = 0.0298	x1 = 0.0697	x1 = 0.0991	x1 = 0.2001	x1 = 0.3002	x1 = 0.439	x1 = 0.5972	x1 = 0.7501	x1 = 0.89
293.15 K	4.316	12.27	19.53	55.65	97.57	133.7	136.6	127.6	117.4
298.15 K	3.347	9.898	15.3	39.88	66.69	88.91	91.45	86.9	80.42
303.15 K	2.838	8.133	12.48	29.5	47.22	61.57	63.37	60.13	57.19
308.15 K	2.449	6.778	9.929	22.51	34.56	44.11	45.74	43.8	41.93
313.15 K	2.138	5.738	8.244	17.58	26.15	32.54	33.55	32.34	31.79

CCCCn1cc[n+](C)c1.[Cl-] + O
101 kPa
Conditions	viscosity [mPa·s]
293.15 K, x2 = 0.4982	235.1
293.15 K, x2 = 0.6132	85.9
303.15 K, x2 = 0.5535	83.3
308.15 K, x2 = 0.4982	92.5

CC[N+](CC)(CC)CC.[I-] + O
viscosity [mPa·s], 101 kPa
Conditions	x1 = 0.0005	x1 = 0.0009	x1 = 0.0018	x1 = 0.0027	x1 = 0.0036
293.15 K	1.004	1.018	1.037	1.051	1.074
298.15 K	0.893	0.902	0.916	0.931	0.943
303.15 K	0.826	0.835	0.846	0.859	0.872
308.15 K	0.697	0.703	0.713	0.723	0.733
